Experimental data published in ChEMBL document CHEMBL1142030, “Identification of small molecule inhibitors of the hepatitis C virus RNA-dependent RNA polymerase from a pyrrolidine combinatorial mixture” (Bioorg Med Chem Lett, 2005).
Several values for one entry are separate records, joined by “and”; a condition that tells them apart may be missing. Identical values can stand only once.

Target: RNA-directed RNA polymerase (Hepacivirus hominis, UniProt O39930)
Assay: Inhibitory concentration against Hepatitis C virus RNA dependent RNA polymerase Nonstructural protein 5B

Chain of RNA-directed RNA polymerase (O39930 whole entry): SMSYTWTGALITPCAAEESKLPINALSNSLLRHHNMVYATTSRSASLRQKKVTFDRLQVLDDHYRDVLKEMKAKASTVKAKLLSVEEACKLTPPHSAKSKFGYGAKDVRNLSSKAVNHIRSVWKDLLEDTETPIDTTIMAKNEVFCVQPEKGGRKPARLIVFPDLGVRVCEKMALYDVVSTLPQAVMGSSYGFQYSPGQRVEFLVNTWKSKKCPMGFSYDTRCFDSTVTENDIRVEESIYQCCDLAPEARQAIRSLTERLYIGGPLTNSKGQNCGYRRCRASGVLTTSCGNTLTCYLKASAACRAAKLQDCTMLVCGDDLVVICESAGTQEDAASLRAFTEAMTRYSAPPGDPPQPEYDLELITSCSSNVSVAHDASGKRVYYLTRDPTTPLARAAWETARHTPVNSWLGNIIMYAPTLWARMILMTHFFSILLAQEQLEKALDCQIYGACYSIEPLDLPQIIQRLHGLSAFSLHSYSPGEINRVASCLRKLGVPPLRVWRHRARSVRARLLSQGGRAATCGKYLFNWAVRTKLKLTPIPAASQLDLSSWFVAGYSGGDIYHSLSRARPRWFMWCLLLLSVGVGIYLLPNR

| IC50 | Structure (SMILES) |
| --- | --- |
| 3200 nM | CC(C)C[C@@]1(C(=O)O)C[C@H](C(=O)O)[C@H](c2cccs2)N1C(=O)c1ccc([N+](=O)[O-])cc1 |
| 600 nM | CC(C)C[C@@]1(C(=O)O)C[C@H](C(=O)O)[C@H](c2cccs2)N1C(=O)c1ccc(Cl)c(Cl)c1 |
| 800 nM | CC(C)C[C@@]1(C(=O)O)C[C@H](C(=O)O)[C@H](c2ccco2)N1C(=O)c1ccc(C(F)(F)F)cc1 |
| 600 nM | CC(C)C[C@@]1(C(=O)O)C[C@H](C(=O)O)[C@H](c2cccs2)N1C(=O)c1cccc(C(F)(F)F)c1 |
| 700 nM | CC(C)C[C@@]1(C(=O)O)C[C@H](C(=O)O)[C@H](c2ccccc2)N1C(=O)c1ccc(C(F)(F)F)cc1 |
| 700 nM | CC(C)C[C@@]1(C(=O)O)C[C@H](C(=O)O)[C@H](c2cccs2)N1C(=O)c1cccc2ccccc12 |
| 300 nM and 190 nM | CC(C)C[C@@]1(C(=O)O)C[C@H](C(=O)O)[C@H](c2cccs2)N1C(=O)c1ccc(C(F)(F)F)cc1 |
| 1000 nM | Cc1ccc([C@H]2[C@@H](C(=O)O)C[C@@](CC(C)C)(C(=O)O)N2C(=O)c2ccc(C(F)(F)F)cc2)cc1 |
| 400 nM | CC(C)C[C@@]1(C(=O)O)C[C@H](C(=O)O)[C@H](c2nccs2)N1C(=O)c1ccc(C(F)(F)F)cc1 |
| 500 nM | CC(C)C[C@@]1(C(=O)O)C[C@H](C(=O)O)[C@H](C(C)C)N1C(=O)c1ccc(C(F)(F)F)cc1 |
| 700 nM | CC(C)C[C@@]1(C(=O)O)C[C@H](C(=O)O)[C@H](c2ccccn2)N1C(=O)c1ccc(C(F)(F)F)cc1 |
| 1900 nM | O=C(O)[C@H]1C[C@@](Cc2ccccc2)(C(=O)O)N(C(=O)c2ccc(C(F)(F)F)cc2)[C@H]1c1ccccc1 |
| 5100 nM | COc1ccccc1[C@H]1[C@@H](C(=O)O)C[C@@](CC(C)C)(C(=O)O)N1C(=O)c1ccc(C(F)(F)F)cc1 |
| 11400 nM | CC(C)C[C@@]1(C(=O)O)C[C@H](C(=O)O)[C@H](c2cccs2)N1C(=O)c1ccccc1 |
| 1700 nM | CC(C)C[C@@]1(C(=O)O)C[C@H](C(=O)O)[C@H](c2cccs2)N1C(=O)c1ccc(Cl)cc1 |
| 900 nM | CC(C)C[C@@]1(C(=O)O)C[C@H](C(=O)O)[C@H](c2ccc(Cl)cc2)N1C(=O)c1ccc(C(F)(F)F)cc1 |
| 3300 nM | CCCC[C@@]1(C(=O)O)C[C@H](C(=O)O)[C@H](c2ccccc2)N1C(=O)c1ccc(C(F)(F)F)cc1 |
| 12000 nM | O=C(O)[C@H]1C[C@@H](C(=O)O)N(C(=O)c2ccc(Cl)c(Cl)c2)C1 (racemic) |
| 7600 nM | O=C(O)[C@H]1C[C@@H](C(=O)O)N(C(=O)c2ccc(C(F)(F)F)cc2)C1 (racemic) |
| 18000 nM | CC(C)C[C@@]1(C(=O)O)C[C@H](C(=O)O)C(c2cccs2)N1C(=O)c1ccc(C(F)(F)F)cc1 (single isomer, unassigned) |

| Structure (SMILES) | IC50 |
| --- | --- |
| CC(C)C[C@@]1(C(=O)O)C[C@H](C(=O)O)[C@H](c2cccs2)N1C(=O)c1ccccc1C(F)(F)F | > 20000 nM |
| O=C(O)CC[C@@]1(C(=O)O)C[C@H](C(=O)O)[C@H](c2ccccc2)N1C(=O)c1ccc(C(F)(F)F)cc1 | > 20000 nM |
| CC(C)C[C@@]1(C(=O)O)C[C@H](C(=O)O)[C@H](c2cccs2)N1C(=O)c1ccncc1 | > 20000 nM |
| CCCCCCC(=O)N1[C@@H](c2cccs2)[C@@H](C(=O)O)C[C@@]1(CC(C)C)C(=O)O | > 20000 nM |
| C[C@@]1(C(=O)O)C[C@H](C(=O)O)[C@H](c2ccccc2)N1C(=O)c1ccc(C(F)(F)F)cc1 | > 20000 nM |
| NCCC[C@@]1(C(=O)O)C[C@H](C(=O)O)[C@H](c2ccccc2)N1C(=O)c1ccc(C(F)(F)F)cc1 | > 20000 nM |
| O=C(O)[C@H]1C[C@@](Cc2ccc(O)cc2)(C(=O)O)N(C(=O)c2ccc(C(F)(F)F)cc2)[C@H]1c1ccccc1 | > 20000 nM |
